Data from paper PMC9652379, “Safety evaluations of a synthetic antimicrobial peptide administered intravenously in rats and dogs” (Scientific Reports, 2022).
Positions of bridges follow the written chain, without caps; N, C: chain ends. Non-standard residues stand in square brackets, D forms with d. Residues, ends and D or L forms follow the SMILES beside them. Chains are numbered I, II in the order given. βAla = NCCC(=O)O

Columns and labels:
rats = test: Respiratory function in rats (whole body plethysmography); assay type: in vivo, rat
Procedure: The possible side-effects of SET-M33 on respiratory function were evaluated after administration of the peptide as a single intravenous bolus at doses of 5, 9 and 15 mg/kg with vehicle (eight animals/group). Respiratory rate, tidal volume and minute volume were assessed. As in the case of neurological toxicity and the 4-week toxicity study, again the dose levels were selected on the basis DRF (above). Baclofen, a muscle relaxer and antispasmodic used to treat muscle pain, spasms and stiffness in people with multiple sclerosis or spinal cord injury or disease, was used as positive control. It was administered as a single intravenous injection at a dose of 15 mg/kg.
Whole body, bias flow plethysmography equipment was used[51]. Respiratory parameters (respiratory rate, tidal volume and minute volume) were derived from the changes in pressure associated with the warming and humidification of the air breathed in by the animal. This was monitored by specific probes located in the plethysmograph chambers. Bias flow (room air) was set at approximately 2.5 L/min. On a day prior to the first day of dosing, all animals were habituated to the plethysmographs for approximately 2 h. The study was run over 4 days and 10 animals (two from each group) were examined each day. On the day of dosing, the animals were placed in the plethysmographs for pre-dose recording (session 1) of respiratory parameters for 60 min. Groups of 8 rats were then removed from the chambers and dosed by intravenous bolus injection with vehicle, SET-M33 or positive control. Immediately after dosing, the rats were placed in the whole body plethysmographs, where they could move about freely, to continuously record respiratory parameters for 4 h post-dose (undisturbed recording). Immediately after the last post-dose recording, the animals were killed humanely by a rising concentration of carbon dioxide. Death was confirmed by dislocation of the neck. Respiratory parameters were reported at the following time points: 0, 30, 60, 90, 120, 150, 180, 210 and 240 min. Time 0 coincided with the mean value of the last 20 min of data recorded in the 60-min pre-dose period. All other time points were the mean of 10-min recordings (an average of every 10 breaths) around each time point. Each post-dose time point was analysed separately by analysis of covariance. Factors in the model were group and day of data collection, with pre-dose values as covariate.

beagle dogs [1] = test: Four-week toxicity study in dogs: necroscopy, organ weights, microscopic findings; assay type: in vivo, dog; conditions: for Kidney: degeneration/regeneration, tubules, minimal (incidence): 4-week dosing; for Kidney: regeneration, tubules, minimal (incidence): 4-week recovery period
Procedure: These higher weights were correlated microscopically with minimal tubule degeneration/regeneration and minimal interstitial cell infiltrates. There were no other SET-M33-related organ weight changes (Table 6). There were no organ weight changes at recovery sacrifice, or macroscopic findings at terminal and recovery necroscopy. […] The kidney findings included minimal tubule degeneration/regeneration at 1.5 mg/kg/day and 4 mg/kg/day in males, and at 4.0 mg/kg/day in females, and minimal interstitial cell infiltrate in both sexes at a dose of 4.0 mg/kg/day. Degeneration featured vacuolation, cell sloughing and/or tinctorial change, and regeneration was characterized by increased basophilia, nuclear crowding and/or increased mitoses of cortical tubule epithelial cells. Regenerative changes were typically more pronounced than degenerative changes. SET-M33-related microscopic findings in kidney were correlated with higher kidney weights (absolute and relative to body and brain weight) and elevated BUN and creatinine in both sexes at 4.0 mg/kg/day. […] After the 4-week recovery period, kidney interstitial infiltrates cleared completely and tubule degeneration/regeneration resolved almost completely. At the infusion sites, there was complete recovery from vascular/perivascular inflammation and tunica intima hypertrophy/hyperplasia with partial recovery from vascular thrombi and hypertrophy/hyperplasia of the tunica media. Minimal regeneration of cortical tubule epithelial cells, observed in the kidneys of 1 female at a dose of 4.0 mg/kg/day, was considered to be due to a repair process, and a slight thrombus observed at the infusion site (saphenous vein) of another female was also in line with ongoing repair.
Complete macroscopic examination was performed on all animals, including examination of the external surface and all orifices; the external surfaces of the brain and spinal cord; the organs and tissues of the cranial, thoracic, abdominal and pelvic cavities and neck; and the rest of the carcass for macroscopic morphological abnormalities. Necropsy was performed on up to 3 animals/sex/group after treatment for 4 weeks and on 2 animals/sex/group after a 4-week treatment-free recovery period. Organs and tissues were weighed, preserved and examined microscopically. Prior to weighing, organs were carefully dissected and properly trimmed to remove adipose and other contiguous tissue in a uniform manner. Organs were weighed as soon as possible after dissection in order to avoid drying. Paired organs were weighed together. Eyes, optic nerve and testes were initially placed in Modified Davidson’s solution and then kept in 10% neutral buffered formalin (NBF). Lungs and urinary bladder were infused with 10% NBF prior to immersion in a larger volume of the same fixative. All other tissues were preserved in 10% NBF.

beagle dogs [2] = test: Four-week toxicity study with 4-week recovery in dogs: survival, ECG, NOAEL; assay type: in vivo, dog
Procedure: Beagle dogs (5/sex/group) were dosed by intravenous infusion once daily for 1 h with 0 (0.9% sodium chloride for injection), 0.5, 1.5 or 4.0 mg/kg/day SET-M33 for four consecutive weeks. The doses were selected in the dog DRF study (above). The dose of 4 mg/kg/day was selected as the highest dose without macroscopic side effects in the DRF study, and was used to evaluate renal toxicity and its reversibility. The dose of 0.5 mg/kg/day was selected as the lowest dose, about one order of magnitude less than the highest dose. The dose of 1.5 mg/kg/day was selected as an approximately median mid-dose. On completion of 4 weeks of infusion, three animals/sex/group were euthanized and necropsied and the remaining two animals/sex/group were held for a 4-week drug free recovery period after which they were euthanized and necropsied. Blood samples were obtained from all animals on days 1 and 28 for toxicokinetic analysis.
Animals were observed daily for mortality and signs of severe toxic or pharmacological effects. […] Blood obtained via jugular venepuncture from anaesthetized dogs was used to analyse blood, coagulation and clinical chemistry parameters for 5 animals/sex/group pre-test and at termination of dosing and from 2 animals/sex/group at the end of recovery.

## CC[C@H](C)[C@H](NC(=O)[C@H](CCCCN)NC(=O)[C@@H](N)CCCCN)C(=O)N[C@@H](CCCNC(=N)N)C(=O)N[C@H](C(=O)N[C@@H](CCCNC(=N)N)C(=O)N[C@@H](CC(C)C)C(=O)N[C@@H](CO)C(=O)N[C@@H](C)C(=O)NCCCC[C@H](NC(=O)[C@H](C)NC(=O)[C@H](CO)NC(=O)[C@H](CC(C)C)NC(=O)[C@H](CCCNC(=N)N)NC(=O)[C@@H](NC(=O)[C@H](CCCNC(=N)N)NC(=O)[C@@H](NC(=O)[C@H](CCCCN)NC(=O)[C@@H](N)CCCCN)[C@@H](C)CC)C(C)C)C(=O)NCCCC[C@H](NC(=O)[C@H](CCCCNC(=O)[C@H](C)NC(=O)[C@H](CO)NC(=O)[C@H](CC(C)C)NC(=O)[C@H](CCCNC(=N)N)NC(=O)[C@@H](NC(=O)[C@H](CCCNC(=N)N)NC(=O)[C@@H](NC(=O)[C@H](CCCCN)NC(=O)[C@@H](N)CCCCN)[C@@H](C)CC)C(C)C)NC(=O)[C@H](C)NC(=O)[C@H](CO)NC(=O)[C@H](CC(C)C)NC(=O)[C@H](CCCNC(=N)N)NC(=O)[C@@H](NC(=O)[C@H](CCCNC(=N)N)NC(=O)[C@@H](NC(=O)[C@H](CCCCN)NC(=O)[C@@H](N)CCCCN)[C@@H](C)CC)C(C)C)C(=O)NCCC(=O)O)C(C)C [SET-M33] (I: H-KKIRVRLSAKK[βAla]-OH / II: H-KKIRVRLSAK / III: H-KKIRVRLSA / IV: H-KKIRVRLSA; amide I:10-IV:C, I:11-II:C, II:10-III:C (inferred); N-terminus and C-terminus assumed)
rats; rats, 15 mg/kg single iv bolus, 30 min post-dose, subsided by 60 min
  minute volume vs vehicle: statistically significant increase
rats; rats, 5, 9 and 15 mg/kg single iv bolus, 4 h post-dose, n=8/group
  effects on respiratory rate, tidal volume or minute volume: did not produce any statistically significant adverse effects
Beagle dogs [1]; dog, in vivo, 0.5 mg/kg/day
  Infusion site (combined incidence, four sites): haemorrhage, vascular/perivascular, minimal: 1
  Infusion site (combined incidence, four sites): haemorrhage, vascular/perivascular, moderate: 0
  Infusion site (combined incidence, four sites): haemorrhage, vascular/perivascular, slight: 1
  Infusion site (combined incidence, four sites): haemorrhage, vascular/perivascular, total: 2
  Infusion site (combined incidence, four sites): hypertrophy/hyperplasia, tunica intima, minimal: 0
  Infusion site (combined incidence, four sites): hypertrophy/hyperplasia, tunica media, minimal: 0
  Infusion site (combined incidence, four sites): inflammation, vascular/perivascular, moderate: 0
  Infusion site (combined incidence, four sites): thrombus, blood vessels, high: 0
  Infusion site (combined incidence, four sites): thrombus, blood vessels, moderate: 0
  Kidney: infiltrate, interstitium, minimal (incidence): 0
Beagle dogs [1]; dog, in vivo, 1.5 mg/kg/day
  Infusion site (combined incidence, four sites): haemorrhage, vascular/perivascular, slight: 0
  Infusion site (combined incidence, four sites): hypertrophy/hyperplasia, tunica intima, minimal: 0
  Infusion site (combined incidence, four sites): hypertrophy/hyperplasia, tunica media, minimal: 0
  Infusion site (combined incidence, four sites): inflammation, vascular/perivascular, moderate: 0
  Infusion site (combined incidence, four sites): thrombus, blood vessels, high: 0
  Infusion site (combined incidence, four sites): thrombus, blood vessels, minimal: 0
  Infusion site (combined incidence, four sites): thrombus, blood vessels, slight: 0
Beagle dogs [1]; dog, in vivo, 4 mg/kg/day
  Infusion site (combined incidence, four sites): haemorrhage, vascular/perivascular, moderate: 0
  Infusion site (combined incidence, four sites): hypertrophy/hyperplasia, tunica intima, minimal: 0
  Infusion site (combined incidence, four sites): hypertrophy/hyperplasia, tunica intima, slight: 0
  Infusion site (combined incidence, four sites): hypertrophy/hyperplasia, tunica intima, total: 0
  Infusion site (combined incidence, four sites): thrombus, blood vessels, minimal: 0
  Infusion site (combined incidence, four sites): thrombus, blood vessels, moderate: 5
Beagle dogs [1]; female dogs, 0.5 mg/kg/day
  Kidney: degeneration/regeneration, tubules, minimal (incidence): 0
  Kidney: regeneration, tubules, minimal (incidence): 0
Beagle dogs [1]; female dogs, 1.5 mg/kg/day
  Kidney: degeneration/regeneration, tubules, minimal (incidence): 0
  Kidney: regeneration, tubules, minimal (incidence): 0
Beagle dogs [1]; female dogs, 4.0 mg/kg/day
  Kidney: degeneration/regeneration, tubules, minimal (incidence): 2
  Kidney: regeneration, tubules, minimal (incidence): 1
Beagle dogs [1]; male dogs, 0.5 mg/kg/day
  Kidney: degeneration/regeneration, tubules, minimal (incidence): 2
  Kidney: regeneration, tubules, minimal (incidence): 0
Beagle dogs [1]; male dogs, 1.5 mg/kg/day
  Kidney: degeneration/regeneration, tubules, minimal (incidence): 3
  Kidney: regeneration, tubules, minimal (incidence): 0
Beagle dogs [1]; male dogs, 4.0 mg/kg/day
  Kidney: degeneration/regeneration, tubules, minimal (incidence): 0
  Kidney: regeneration, tubules, minimal (incidence): 0
Beagle dogs [2]; beagle dogs, daily iv infusion at ≥ 0.5 mg/kg/day, males and females
  effect on heart function, ECG parameters (heart rate, PR, QRS, QT and QTc intervals): did not produce any observable effect on heart function
Beagle dogs [2]; dogs, 0.5, 1.5 or 4.0 mg/kg/day 1-h iv infusion, 4 weeks + 4-week recovery
  survival: All animals survived until their scheduled termination
